Source: PubChem BioAssay AID2060886 (Molecular Pharmacology Branch, DTP, NCI, 2025)

Test system: 653999-131-R-J2-PDC complex spheroids, growth inhibition
Assay: Anticancer human tumor 653999-131-R-J2-PDC patient-derived lung adenocarcinoma cell line growth inhibition [RAS]
Details: for viability, T/C: stronger effect = lower value
Outline: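 Tumour cells grown as complex spheroids with HUVEC endothelial cells and mesenchymal stem cells, treated with RAS pathway inhibitor combinations. Each agent spans half-log steps from near clinical Cmax, or 10 microM where Cmax is unknown.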

[1] = curve of first compound, second compound 0.0316 µM
[2] = curve of first compound, second compound 0.1 µM
[3] = curve of first compound, second compound 0.316 µM
[4] = curve of first compound, second compound 1 µM
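Further: spheroids exposed to the agents for seven days before the readout.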

Nc1ccn(C2OC(CO)C(O)C2(F)F)c(=O)n1 (stereo not drawn) + C#Cc1c(F)ccc2cc(O)cc(-c3ncc4c(N5CC6CCC(C5)N6)nc(OCC56CCCN5CC(F)C6)nc4c3F)c12
IC50 [1]: 71.1 nM
IC50 [2]: 36.8 nM
IC50 [3]: 11.8 nM
IC50 [4]: 3.37 nM
IC50 (curve of first compound, second compound 3.16 µM): < 3.16 nM
IC50 (curve of first compound, second compound 10 µM): < 3.16 nM
viability, T/C (second compound 0.0316 µM, first compound 0.00316 µM): 98.5%
viability, T/C (second compound 0.0316 µM, first compound 0.01 µM): 74.4%
viability, T/C (second compound 0.0316 µM, first compound 0.0316 µM): 58.3%
viability, T/C (second compound 0.0316 µM, first compound 0.1 µM): 48.5%
viability, T/C (second compound 0.0316 µM, first compound 0.316 µM): 36.6%
viability, T/C (second compound 0.0316 µM, first compound 1 µM): 32.4%
viability, T/C (second compound 0.1 µM, first compound 0.00316 µM): 96.9%
viability, T/C (second compound 0.1 µM, first compound 0.01 µM): 59.8%
viability, T/C (second compound 0.1 µM, first compound 0.0316 µM): 56.4%
viability, T/C (second compound 0.1 µM, first compound 0.1 µM): 46%
viability, T/C (second compound 0.1 µM, first compound 0.316 µM): 34.6%
viability, T/C (second compound 0.1 µM, first compound 1 µM): 31.4%
viability, T/C (second compound 0.316 µM, first compound 0.00316 µM): 58.1%
viability, T/C (second compound 0.316 µM, first compound 0.01 µM): 52.4%
viability, T/C (second compound 0.316 µM, first compound 0.0316 µM): 39.2%
viability, T/C (second compound 0.316 µM, first compound 0.1 µM): 32.1%
viability, T/C (second compound 0.316 µM, first compound 0.316 µM): 27.6%
viability, T/C (second compound 0.316 µM, first compound 1 µM): 26.5%
viability, T/C (second compound 1 µM, first compound 0.00316 µM): 50.5%
viability, T/C (second compound 1 µM, first compound 0.01 µM): 43%
viability, T/C (second compound 1 µM, first compound 0.0316 µM): 29.8%
viability, T/C (second compound 1 µM, first compound 0.1 µM): 20.9%
viability, T/C (second compound 1 µM, first compound 0.316 µM): 19.9%
viability, T/C (second compound 1 µM, first compound 1 µM): 18.9%
viability, T/C (second compound 3.16 µM, first compound 0.00316 µM): 35.4%
viability, T/C (second compound 3.16 µM, first compound 0.01 µM): 28.4%
viability, T/C (second compound 3.16 µM, first compound 0.0316 µM): 19.1%
viability, T/C (second compound 3.16 µM, first compound 0.1 µM): 14.9%
viability, T/C (second compound 3.16 µM, first compound 0.316 µM): 14.6%
viability, T/C (second compound 3.16 µM, first compound 1 µM): 14.5%
viability, T/C (second compound 10 µM, first compound 0.00316 µM): 33.6%
viability, T/C (second compound 10 µM, first compound 0.01 µM): 13.5%
viability, T/C (second compound 10 µM, first compound 0.0316 µM): 21.2%
viability, T/C (second compound 10 µM, first compound 0.1 µM): 13.9%
viability, T/C (second compound 10 µM, first compound 0.316 µM): 12.7%
viability, T/C (second compound 10 µM, first compound 1 µM): 10.1%

CC1(C)CCC(Nc2ncc(C(F)(F)F)c(-c3c[nH]c4c(P(C)(C)=O)c(C#N)ccc34)n2)CN1 (stereo not drawn) + C=CC(=O)N1CCN(c2nc(OCC3CCCN3C)nc3c(F)c(-c4nc(N)cc(C)c4C(F)(F)F)c(Cl)cc23)C(C)C1
IC50 (curve of first compound, second compound 0.00316 µM): > 300 nM
IC50 (curve of first compound, second compound 0.01 µM): > 300 nM
IC50 [1]: > 300 nM
IC50 [2]: > 300 nM
IC50 [3]: > 300 nM
IC50 [4]: > 300 nM
viability, T/C (second compound 0.00316 µM, first compound 0.000949 µM): 84%
viability, T/C (second compound 0.00316 µM, first compound 0.003 µM): 70.5%
viability, T/C (second compound 0.00316 µM, first compound 0.00949 µM): 73.5%
viability, T/C (second compound 0.00316 µM, first compound 0.03 µM): 60.1%
viability, T/C (second compound 0.00316 µM, first compound 0.0949 µM): 70%
viability, T/C (second compound 0.00316 µM, first compound 0.3 µM): 71.4%
viability, T/C (second compound 0.01 µM, first compound 0.000949 µM): 88.8%
viability, T/C (second compound 0.01 µM, first compound 0.003 µM): 74%
viability, T/C (second compound 0.01 µM, first compound 0.00949 µM): 70.1%
viability, T/C (second compound 0.01 µM, first compound 0.03 µM): 60.9%
viability, T/C (second compound 0.01 µM, first compound 0.0949 µM): 68%
viability, T/C (second compound 0.01 µM, first compound 0.3 µM): 64.6%
viability, T/C (second compound 0.0316 µM, first compound 0.000949 µM): 89.8%
viability, T/C (second compound 0.0316 µM, first compound 0.003 µM): 66.1%
viability, T/C (second compound 0.0316 µM, first compound 0.00949 µM): 59.9%
viability, T/C (second compound 0.0316 µM, first compound 0.03 µM): 64.2%
viability, T/C (second compound 0.0316 µM, first compound 0.0949 µM): 65.2%
viability, T/C (second compound 0.0316 µM, first compound 0.3 µM): 64.5%
viability, T/C (second compound 0.1 µM, first compound 0.000949 µM): 77.5%
viability, T/C (second compound 0.1 µM, first compound 0.003 µM): 68.7%
viability, T/C (second compound 0.1 µM, first compound 0.00949 µM): 61%
viability, T/C (second compound 0.1 µM, first compound 0.03 µM): 58.5%
viability, T/C (second compound 0.1 µM, first compound 0.0949 µM): 60.1%
viability, T/C (second compound 0.1 µM, first compound 0.3 µM): 69.8%
viability, T/C (second compound 0.316 µM, first compound 0.000949 µM): 101%
viability, T/C (second compound 0.316 µM, first compound 0.003 µM): 72.3%
viability, T/C (second compound 0.316 µM, first compound 0.00949 µM): 69.8%
viability, T/C (second compound 0.316 µM, first compound 0.03 µM): 77.1%
viability, T/C (second compound 0.316 µM, first compound 0.0949 µM): 77.5%
viability, T/C (second compound 0.316 µM, first compound 0.3 µM): 69.5%
viability, T/C (second compound 1 µM, first compound 0.000949 µM): 78.9%
viability, T/C (second compound 1 µM, first compound 0.003 µM): 69.9%
viability, T/C (second compound 1 µM, first compound 0.00949 µM): 74%
viability, T/C (second compound 1 µM, first compound 0.03 µM): 64%
viability, T/C (second compound 1 µM, first compound 0.0949 µM): 65.9%
viability, T/C (second compound 1 µM, first compound 0.3 µM): 63.7%

CC1(C)CCC(Nc2ncc(C(F)(F)F)c(-c3c[nH]c4c(P(C)(C)=O)c(C#N)ccc34)n2)CN1 (stereo not drawn)
viability, T/C (compound 0.000949 µM): 87.8% [middle of 4 runs]
viability, T/C (compound 0.003 µM): 75.3% [middle of 4 runs]
viability, T/C (compound 0.00949 µM): 72% [middle of 4 runs]
viability, T/C (compound 0.03 µM): 71.6% [middle of 4 runs]
viability, T/C (compound 0.0949 µM): 71.7% [middle of 4 runs]
viability, T/C (compound 0.3 µM): 61.9% [middle of 4 runs]
IC50 (curve of compound): > 300 nM

CCn1c(-c2cc(N3CCN(C)CC3)cnc2C(C)OC)c2c3cc(ccc31)-c1csc(n1)CC(NC(=O)C1CC1C)C(=O)N1CCCC(N1)C(=O)OCC(C)(C)C2 (stereo not drawn)
viability, T/C (compound 0.000949 µM): 80.7% [middle of 7 runs]
viability, T/C (compound 0.003 µM): 65.2% [middle of 7 runs]
viability, T/C (compound 0.00949 µM): 49.8% [middle of 7 runs]
viability, T/C (compound 0.03 µM): 37.4% [middle of 7 runs]
viability, T/C (compound 0.0949 µM): 29.4% [middle of 7 runs]
viability, T/C (compound 0.3 µM): 28.6% [middle of 7 runs]
IC50 (compound alone, run of 08/26/2024): 8.13 nM [middle of 7 runs]
